Test results as given in patent publication US20060069132A1, “Azolecarboxamide herbicides” (priority 2004, published 2006).

Tests used:
Experiment in all cases: Test C pre-/postemergence herbicide test
eastern black nightshade = format: in vivo, Solanum ptycanthum; conditions: for Plant response rating (0 = no effect, 100 = complete control), Nightshade / Plant response rating, Nightshade: preemergence
How it was run: (§1)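 Visual injury scores run from 0 (no effect) to 100 (complete control), assessed relative to untreated controls 12 to 14 days after treatment in the greenhouse. Chemicals were formulated in a non-phytotoxic solvent mixture with surfactant and applied to soil after planting or to emerged plants at the 1- to 4-leaf stage.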

cocklebur = format: in vivo, Xanthium strumarium; conditions: for Plant response rating (0 = no effect, 100 = complete control), Cocklebur / Plant response rating, Cocklebur: preemergence
How it was run: as §1

morningglory = format: in vivo, Ipomoea coccinea; set-up: key to Plant response rating, Morningglory: 0 = no effect, 100 = complete control; conditions: for Plant response rating (0 = no effect, 100 = complete control), Morningglory / Plant response rating, Morningglory: preemergence
How it was run: as §1

yellow nutsedge = format: in vivo, Cyperus esculentus; conditions: for Plant response rating (0 = no effect, 100 = complete control), Nutsedge, Yellow / Plant response rating, Nutsedge, Yellow: preemergence
How it was run: as §1

Surinam grass = format: in vivo, Urochloa decumbens; conditions: for Plant response rating (0 = no effect, 100 = complete control), Surinam Grass / Plant response rating, Surinam Grass: preemergence
How it was run: as §1

giant foxtail = format: in vivo, Setaria faberi; conditions: for Plant response rating (0 = no effect, 100 = complete control), Foxtail, Giant / Plant response rating, Foxtail, Giant: preemergence
How it was run: as §1

johnsongrass = format: in vivo, Sorghum halepense; conditions: for Plant response rating (0 = no effect, 100 = complete control), Johnsongrass / Plant response rating, Johnsongrass: preemergence
How it was run: as §1

[1] = 125 g ai/ha, scale 0 (no effect) to 100 (complete control), visual, 12 to 14 days
[2] = 250 g ai/ha, scale 0 to 100 (0 no effect, 100 complete control), visual, 12 to 14 days
[3] = Preemergence, 500 g ai/ha, scale 0 to 100, 0 no effect, 100 complete control
[4] = 500 g ai/ha, scale 0 to 100 (0 no effect, 100 complete control), visual, 12 to 14 days

CCCn1nc(C(C)(C)C)cc1C(=O)Nc1cccc(C(=O)NCC)c1 [Compound 57]
Plant response rating (0 = no effect, 100 = complete control), Nightshade (eastern black nightshade; 62 g ai/ha): 85 | Plant response rating, Nightshade (eastern black nightshade; [1]): 95 | Plant response rating, Nightshade (eastern black nightshade; [2]): 100 | Nightshade plant response rating (eastern black nightshade; [3]): 100 | Plant response rating (0 = no effect, 100 = complete control), Cocklebur (cocklebur; 62 g ai/ha): 0 | Plant response rating, Cocklebur (cocklebur; [1]): 0 | Plant response rating, Cocklebur (cocklebur; [2]): 0 | Cocklebur plant response rating (cocklebur; [3]): 0 | Plant response rating (0 = no effect, 100 = complete control), Morningglory (morningglory; 62 g ai/ha): 0 | Plant response rating, Morningglory (morningglory; [1]): 0 | Plant response rating, Morningglory (morningglory; [2]): 25 | Morningglory plant response rating (morningglory; [3]): 25 | Plant response rating (0 = no effect, 100 = complete control), Nutsedge, Yellow (yellow nutsedge; 62 g ai/ha): 0 | Plant response rating, Nutsedge, Yellow (yellow nutsedge; [1]): 0 | Plant response rating, Nutsedge, Yellow (yellow nutsedge; [2]): 0 | Nutsedge, Yellow plant response rating (yellow nutsedge; [3]): 20 | Plant response rating (0 = no effect, 100 = complete control), Surinam Grass (Surinam grass; 62 g ai/ha): 0 | Plant response rating, Surinam Grass (Surinam grass; [1]): 15 | Plant response rating, Surinam Grass (Surinam grass; [2]): 35 | Surinam Grass plant response rating (Surinam grass; [3]): 75 | Plant response rating (0 = no effect, 100 = complete control), Foxtail, Giant (giant foxtail; 62 g ai/ha): 20 | Plant response rating, Foxtail, Giant (giant foxtail; [1]): 95 | Plant response rating, Foxtail, Giant (giant foxtail; [2]): 100 | Foxtail, Giant plant response rating (giant foxtail; [3]): 100 | Plant response rating (0 = no effect, 100 = complete control), Johnsongrass (johnsongrass; 62 g ai/ha): 20 | Plant response rating, Johnsongrass (johnsongrass; [1]): 65 | Plant response rating, Johnsongrass (johnsongrass; [2]): 80 | Johnsongrass plant response rating (johnsongrass; [3]): 85

CCN(CC)C(=O)c1cccc(NC(=O)c2nn(C(C)(C)C)nc2C)c1 [Compound 418]
Plant response rating, Nightshade (eastern black nightshade; 62 g ai/ha, scale 0 to 100): 95 | Plant response rating (0 = no effect, 100 = complete control), Nightshade (eastern black nightshade; 125 g ai/ha): 95 | Plant response rating, Nightshade (eastern black nightshade; [4]): 100 | Plant response rating, Cocklebur (cocklebur; 62 g ai/ha, scale 0 to 100): 0 | Plant response rating (0 = no effect, 100 = complete control), Cocklebur (cocklebur; 125 g ai/ha): 0 | Plant response rating, Cocklebur (cocklebur; 250 g ai/ha, scale 0-100): 30 | Plant response rating, Cocklebur (cocklebur; [4]): 35 | Plant response rating, Morningglory (morningglory; 62 g ai/ha, scale 0 to 100): 20 | Plant response rating (0 = no effect, 100 = complete control), Morningglory (morningglory; 125 g ai/ha): 70 | Plant response rating, Morningglory (morningglory; [4]): 100 | Plant response rating, Nutsedge, Yellow (yellow nutsedge; 62 g ai/ha, scale 0 to 100): 0 | Plant response rating (0 = no effect, 100 = complete control), Nutsedge, Yellow (yellow nutsedge; 125 g ai/ha): 0 | Plant response rating, Nutsedge, Yellow (yellow nutsedge; [4]): 0 | Plant response rating, Surinam Grass (Surinam grass; 62 g ai/ha, scale 0 to 100): 50 | Plant response rating (0 = no effect, 100 = complete control), Surinam Grass (Surinam grass; 125 g ai/ha): 85 | Plant response rating, Surinam Grass (Surinam grass; [4]): 100 | Plant response rating, Foxtail, Giant (giant foxtail; 62 g ai/ha, scale 0 to 100): 65 | Plant response rating (0 = no effect, 100 = complete control), Foxtail, Giant (giant foxtail; 125 g ai/ha): 95 | Plant response rating, Foxtail, Giant (giant foxtail; 250 g ai/ha, scale 0-100): 100 | Plant response rating, Foxtail, Giant (giant foxtail; [4]): 100 | Plant response rating, Johnsongrass (johnsongrass; 62 g ai/ha, scale 0 to 100): 95 | Plant response rating (0 = no effect, 100 = complete control), Johnsongrass (johnsongrass; 125 g ai/ha): 95 | Plant response rating, Johnsongrass (johnsongrass; 250 g ai/ha, scale 0-100): 95 | Plant response rating, Johnsongrass (johnsongrass; [4]): 95
